Reference: patent US20260191999A1, “COMPOUNDS AND THEIR USE” (KING'S COLLEGE LONDON, priority 2022, published 2026)

What was measured:
[1] = tested on: SKOV3-ip1 cells; experiment: Cisplatin-induced growth inhibition, MTT assay, SKOV3-ip1; assay type: cell-based, human; conditions: MTT assay 72 h post treatment; second value of 'respectively' pair (SKOV3-ip1 as printed)
Protocol: FIG. 1a: Graph showing cisplatin-induced growth inhibition in SKOV3-ip1 cells (white circles) and SKOV3-TRip2 cells (filled squares) using an MTT assay 72 h post treatment (n=3-5).
The SKOV3-TRip2 cell line was generated through progressive exposure to paclitaxel (Duan et al., 1999) whereas the SKOV3-ip1 cell line remained untreated.

[2] = tested on: SKOV3-TRip2 and SKOV3-ip1 cells; experiment: Cell uptake of radiotracer, drug-resistant vs drug-sensitive SKOV3 cells; assay type: cell-based, human
Protocol: For cell uptake studies SKOV3-ip1 and SKOV3-TRip2, A549-WT, A549-KO-ALDH1A1, HEK293-WT and HEK293-ALDH1A1 cells were plated in 6 well plates 24 h prior to the studies, as described above (Western Blotting). One mL of fresh media containing 0.37 MBq of PQM-H-001 and 6 KBq PQM-H-002 was added to each well for the desired incubation time. At 40 min, plates were placed on ice, washed three times with ice-cold PBS to remove exogenous radioactivity and lysed in RIPA buffer ([…]; Fisher Scientific Ltd).
For all cell uptake and efflux study decay-corrected radioactivity in lysates was determined on a gamma counter ([…]; Wallac 1282 CompuGamma counter), with the remaining cell lysate centrifuged (21,000×g for 10 min at 4° C.) and the supernatant used to determine protein concentration following radioactive decay using a Pierce BCA assay. To quantify radiotracer uptake in cells, three standard solutions of the radioactivity-containing medium were counted on the gamma counter. Data were expressed as a percentage of total radioactivity administered to cells per mg of protein.
Next, the time-dependent uptake of the of the radiotracers PQM-H-001 ([^18F]PQM-H-001) and PQM-H-002 ([^125I]PQM-H-002) was profiled in drug-resistant SKOV3-Trip2 and drug-sensitive SKOV3-ip1 cell lines (Pereira, R., et al. 2019).

[3] = tested on: SKOV3-TRip2 and SKOV3-ip1 subcutaneous tumours; experiment: In vivo tumour model and PET imaging; design: species or system Balb/c nu/nu mice
Protocol: All animal experiments were performed in accordance with the United Kingdom Home Office Animal (scientific procedures) Act […]. […] SKOV3-ip1 and 4×10^6 and SKOV3-TRip2 cells were injected subcutaneously into female Balb/c nu/nu mice aged 6-9 weeks (Charles River Laboratories). Tumour dimensions were measured using an electronic calliper and the volume calculated using the following equation: volume=((π/6)×h×w×l), where h, w and l represent, height, width, and length, respectively. Imaging studies took place when tumour size reached approximately 150-250 mm^3. Mice were anaesthetized with isoflurane (2.5% in oxygen) and maintained at 37° C. using an air-heated scanning bed. A tail vein cannula was inserted and a 3.7 MBq bolus of PQM-H-001 was administered in approximately 100 μL of PBS. Immediately following injection, 120 min PET acquisition was performed on a Mediso nanoScan PET/CT system. […] Reconstructed images (Tera-Tomo 3D reconstruction algorithm; 4 iterations; 6 subsets; 400-600 keV; 0.4 mm voxel size) were analysed using VivoQuant software (v. 2.5, Invicro Ltd.). Regions of interest (ROIs) were drawn manually on the CT images and the radioactivity concentration in each ROI expressed as a percentage of the injected dose per mL of tissue volume (% ID/mL).

[4] = Ex vivo biodistribution; assay type: in vivo, BALB/c-nu/nu mice; conditions: 90 min post radiotracer injection
Protocol: PQM-H-001 distribution was further evaluated ex vivo 90 min post radiotracer injection. […] Ex-vivo distribution of PQM-H-001 was performed after PET imaging (section: In Vivo Tumour Model and PET Imaging) by sacrificing all mice at time point 120 min post injection. Blood, tumour, and major organs and tissues were collected, wet-weighed, and counted using an automated y-counter (Wallac 1282 CompuGamma g counter). The concentrations of radioactivity in blood, tumor, and organs and tissues were determined as percentage injected of total radioactivity per gram (% ID/g).

| SMILES | EC50 [1] [µM] | Radiotracer retention, drug resistant versus drug-sensitive cells [2] [times higher] | Retention in treatment resistant SKOV3-TRip2 tumours compared to SKOV3-ip1 tumours ([3]; PET, subcutaneous tumours, 3.7 MBq i.v. bolus) [×] | identification of drug resistant tumours in vivo (in words) ([3]; PET/CT imaging) | radiotracer retention in drug-resistant vs drug-sensitive tumours (in words) [4] | radiotracer retention in healthy tissues (in words) [4] | route of excretion (in words) [4] |
| --- | --- | --- | --- | --- | --- | --- | --- |
| N.N.[Cl][Pt][Cl] [cisplatin] | 2.6 |  |  |  |  |  |  |
| CS(=O)(=O)N1CCN(C(=O)c2cnc3ccc([18F])cc3c2-c2ccc(C3(C#N)CC3)cc2)CC1 [PQM-H-001, 1-(4-(6-(fluoro-^18F)-3-(4-(methylsulfonyl)piperazine-1-carbonyl)quinolin-4-yl)phenyl)cyclopropane-1-carbonitrile] |  | 9 | > 5 | can non-invasively identify drug resistant tumours in vivo | substantially increased in the drug-resistant tumours compared to drug-sensitive tumours | Low radiotracer retention was observed in most healthy tissues, except the liver | excretion occurring via the urinary and hepatobiliary tract |
